Reference: patent US8450280B2, “Activation of peptide prodrugs by hK2” (GenbSpera, Inc., priority 1999, dated 2013)
Starred links: 1 amine or outer side, 2 acyl side, 3 side chain; linkers in the order of their positions; H or OH if unused. Residues, ends and D or L forms follow the SMILES beside them. *: point of attachment. AMC = Cc1cc(=O)oc2cc(N*)ccc12; Tos = Cc1ccc(S(=O)(=O)*)cc1; Cbz = O=C(OCc1ccccc1)*; Boc = CC(C)(C)OC(=O)*; CO = O=C([*:1])[*:2]

Experiments:
hK2 [1] = biological target: T1, hK2 (Homo sapiens, UniProt P20151); assay: Kinetic constants of AMC substrate hydrolysis by hK2; type: biochemical; set-up: key to Kcat: The entry “NR” means that no reaction was detected; settings: for Activity (%): hydrolytic activity of hK2 in relation to H-Pro-Phe-Arg-AMC: 100 μM substrate; for Kcat: 50 mM Tris pH 7.5, 0.1 M NaCl, 0.2% BSA, 37° C., Lineweaver-Burk, NR = no reaction detected
T1 construct: made in house
Method: The measurements were done with Fluoroscan II (Labsystems, Helsinki, Finland) using a 355 nm excitation filter and a 460 nm emission filter. The fluorescence of 7-amino-4-methylcoumarin (AMC) (Sigma, St. Louis, Mo., USA) was determined to be 700 FIU/nmol and this value was used in the calculations of the rate of product formation. Unless otherwise indicated all final analyses were performed in 200 μl of the buffer 50 mM Tris pH 7.5, 0.1 M NaCl, and 0.2% BSA at 37° C. using 1.6 pmol hK2. BSA was added to the reaction mixture in order to minimize adsorption of the enzyme to the walls of the microtiter wells. The amount of hK2 was quantified by a commercial PSA immunoassay (Prostatus, Wallac, Turku, Finland) with the Mabs H1 17 and H50 which recognize PSA and hK2 equally well (Lovgren et al., Biochem. Biophys. Res. Co., 213, 888-895 (1995)). Under the conditions described, 1.6 pmol of the hK2 preparation cleaved 50 pmol/min of the 100 μM substrate Pro-Phe-Arg-AMC (SEQ ID NO: 55). During the 20 minute measurement time the consumption of the substrates is <7% of their total amount and was not considered to affect the reaction rate. Initial analysis of the substrates were performed with 3.2 pmol hK2 at a substrate concentration of 250 μM. Km value for the substrates cleaved by hK2 at these conditions were determined using at least four substrate concentrations ranging from 0.2×Km to 5×Km. The Km and kcat values were calculated from Lineweaver-Burk plots.
Substrates ending in either arginine or lysine were tested. […] However, no hydrolysis of Arg-Gln-Arg-Arg-AMC (SEQ ID NO: 63) was detected. […] As with the semenogelins, hK2 also here cleaves substrates with Arg at position P1 and preferentially a large residue or another Arg at position P2. None of the substrates with lysine in the C-terminal position were cleaved.
The activity listed in Table 1 is hydrolytic activity of hK2 with 100 μM substrate in relation to the hydrolytic activity of hK2 with 100 μM of the tissue kallikrein substrate H-Pro-Phe-Arg-AMC (SEQ ID NO: 55). The entry “NR” means that no reaction was detected.

hK2 [2] = biological target: T1, hK2; assay: Inhibition of hK2 by protease inhibitors (substrate H-Pro-Phe-Arg-AMC); type: biochemical; settings: for inhibition at 100 µM: inhibitor 100 μM (highest recommended working concentration), 90 μM peptide substrate; for remaining activity at 100 µM: inhibitor 100 μM
Method: Activity of hK2 (1.6 pmol) was monitored using the substrate H-Pro-Phe-Arg-AMC (SEQ ID NO: 55) (90 μM). Inhibitors, at commonly used concentrations, and hK2 (8.3 nM) were mixed and proteolysis of 90 μM H-Pro-Phe-Arg-AMC (SEQ ID NO: 55) was followed up to 20 minutes, starting directly or 10 minutes after mixing the enzyme with various inhibitors. Inhibition was evaluated by comparison with […] controls.
The proteolytic activity is expressed in percentage of inhibitor-free control after 10 minutes of incubation.
Therefore, PPACK can be used to obtain fast irreversible inhibition of hK2.

[3] = 10 minutes of incubation, 8.3 nM hK2, 90 μM substrate, read-out: Activity (%) of hK2, percentage of inhibitor-free control

T1 sequence (P20151 25-261): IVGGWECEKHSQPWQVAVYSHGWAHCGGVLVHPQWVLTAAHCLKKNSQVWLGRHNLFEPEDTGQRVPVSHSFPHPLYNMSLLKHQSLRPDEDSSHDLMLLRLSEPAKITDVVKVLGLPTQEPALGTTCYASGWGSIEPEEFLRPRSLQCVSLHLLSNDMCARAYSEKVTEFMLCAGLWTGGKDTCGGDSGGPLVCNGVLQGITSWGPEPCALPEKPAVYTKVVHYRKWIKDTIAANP

Q: Cc1cc(=O)oc2cc(NC(=O)[C@H](CCCNC(=N)N)NC(=O)[C@H](CCCNC(=N)N)NC(=O)[C@H](C)NC(=O)OCc3ccccc3)ccc12 [Ala Arg Arg-AMC, Z-Ala-Arg-Arg-AMC] (Cbz-Ala-Arg-Arg-{AMC}) was tested. Which “hydrolysis by hK2 (in words)” value (hK2 [1]) did it give?
A: Its value is “cleaved quite effectively”.

Q: And the “Activity (%): hydrolytic activity of hK2 in relation to H-Pro-Phe-Arg-AMC” value (hK2 [1])?
A: The value was 33%.

Q: With CC(C)[C@H](NC(=O)[C@H](CCCNC(=N)N)NC(=O)N[C@@H](Cc1ccccc1)C(=O)O)C(=O)N[C@H](C=O)CCCNC(=N)N [Antipain, antipain] ({Phe-CO}-Arg-Val-Arg-aldehyde) as the molecule, how does the inhibition at 100 µM (hK2 [2]) read?
A: The inhibition at 100 µM was about 90%.

Q: And the remaining activity at 100 µM (hK2 [2]; [3])?
A: Its remaining activity at 100 µM is 33%.

Q: What about the remaining activity at 500 µM (hK2 [2]; inhibitor 500 μM, 10 minutes of incubation, 8.3 nM hK2, 90 μM substrate, read-out: Activity (%) of hK2, percentage of inhibitor-free control) of the same molecule?
A: Its remaining activity at 500 µM is 10%.

Q: Which “hydrolysis by hK2 (in words)” value (hK2 [1]) does the source give for Cc1cc(=O)oc2cc(NC(=O)[C@H](CCCNC(=N)N)NC(=O)[C@H](CCCNC(=N)N)NC(=O)[C@H](CCC(N)=O)NC(=O)[C@@H](N)CCCNC(=N)N)ccc12 [Arg Gln Arg Arg-AMC, H-Arg-Gln-Arg-Arg-AMC] (H-RQRR-{AMC}) here?
A: Its value is “no hydrolysis”.

Q: And the Kcat (hK2 [1])?
A: Its Kcat is “NR”.

Q: For Cl.N=C(N)c1ccccc1 [Benzamidine, Benzamidine hydrochloride], which “concentration required for efficient inhibition of hK2” value (hK2 [2]) is on record?
A: The value was “above 20 mM”.

Q: And the remaining activity at 5000 µM (hK2 [2]; inhibitor 5000 μM, 10 minutes of incubation, 8.3 nM hK2, 90 μM substrate, read-out: Activity (%) of hK2, percentage of inhibitor-free control)?
A: The remaining activity at 5000 µM was 27%.

Q: What about the remaining activity at 20000 µM (hK2 [2]; inhibitor 20,000 μM, 10 minutes of incubation, 8.3 nM hK2, 90 μM substrate, read-out: Activity (%) of hK2, percentage of inhibitor-free control) of the same molecule?
A: The remaining activity at 20000 µM was 8%.

Q: For Cc1cc(=O)oc2cc(NC(=O)[C@H](CCCNC(=N)N)NC(=O)CNC(=O)[C@H](CCC(N)=O)NC(=O)OC(C)(C)C)ccc12 [Gln Gly Arg-AMC, Boc-Gln-Gly-Arg-AMC] (Boc-Gln-Gly-Arg-{AMC}), which Kcat (hK2 [1]) is on record?
A: Its Kcat is “NR”.

Q: Cc1ccc(S(=O)(=O)NCC(=O)N2CCC[C@H]2C(=O)N[C@@H](CCCNC(=N)N)C(=O)Nc2ccc3c(C)cc(=O)oc3c2)cc1 [Gly Pro Arg-AMC, Tos-Gly-Pro-Arg-AMC] (Tos-Gly-Pro-Arg-{AMC}) was tested. Which Kcat (hK2 [1]) did it give?
A: The Kcat was “NR”.

Q: How did the Kcat (hK2 [1]) turn out when Cc1ccc(S(=O)(=O)NCC(=O)N2CCC[C@H]2C(=O)N[C@@H](CCCCN)C(=O)Nc2ccc3c(C)cc(=O)oc3c2)cc1 [Gly Pro Lys-AMC, Tos-Gly-Pro-Lys-AMC] (Tos-Gly-Pro-Lys-{AMC}) was run?
A: Its Kcat is “NR”.

Q: With Cc1cc(=O)oc2cc(NC(=O)[C@H](CCCNC(=N)N)NC(=O)[C@H](CC(C)C)NC(=O)[C@H](CC(C)C)NC(=O)OCc3ccccc3)ccc12 [Leu Leu Arg-AMC, Z-Leu-Leu-Arg-AMC] as the molecule, how does the “hydrolysis by hK2 (in words)” value (hK2 [1]) read?
A: Its value is “with lower efficiency”.

Q: And the “Activity (%): hydrolytic activity of hK2 in relation to H-Pro-Phe-Arg-AMC” value (hK2 [1])?
A: Its value is 7%.

Q: Which results are given for CC(=O)N[C@@H](CC(C)C)C(=O)N[C@@H](CC(C)C)C(=O)N[C@H](C=O)CCCNC(=N)N [Leupeptin, leupeptin]?
A: inhibition of hK2 (in words) (hK2 [2]; 8 nM hK2, 90 μM substrate): only weakly inhibited; inhibition at 100 µM (hK2 [2]): ~60%; remaining activity at 100 µM (hK2 [2]; [3]): 12%

Q: Which “inhibition of hK2 (in words)” value (hK2 [2]; 5 μM concentration, irreversible) does the source give for NC(N)=NCCC[C@H](NC(=O)[C@@H]1CCCN1C(=O)[C@H](N)Cc1ccccc1)C(=O)CCl [PPACK] here?
A: The value was “inhibited hK2 rapidly”.

Q: And the “Activity (%) of hK2, percentage of inhibitor-free control” value (hK2 [2]; inhibitor 5 μM, 10 minutes of incubation, 8.3 nM hK2, 90 μM substrate)?
A: The value was 0%.
